# Read-outs that look alike come from different tables or passages of the source.
# System: SARS-CoV-2 strain USA-WA1/2020
# Experiment: microbe, parasite or virus in culture
# Assay type: cell-based
# Conditions: Severe acute respiratory syndrome coronavirus 2, HeLa-ACE2, 24 h, HeLa-ACE2 cells, SARS-CoV-2 infection, 24 h, read-out: EC50, uM (Hela)
smiles,measurement,setting,value
"O=C1NCC[C@H]1C[C@H](NC(=O)[C@@H]1CC2(CC2)CN1C(=O)C(O)C1CCS(=O)(=O)CC1)C(=O)COC(F)(F)F (stereo partly drawn) [Compound 388, (6S)-5-(2-(l,l-dioxidotetrahydro-2H-thiopyran-4-yl)-2-hydroxyacetyl)-N-((S)-3-oxo-1-((S)-2-oxopyrrolidin-3-yl)-4-(trifluoromethoxy)butan-2-yl)-5-azaspiro[2.4]heptane-6-carboxamide]",EC50,bound printed in cell,> 1 µM
"O=C1NCC[C@H]1C[C@H](NC(=O)[C@@H]1CC2(CC2)CN1C(=O)C(O)CC(C(F)(F)F)C(F)(F)F)C(=O)COC(F)(F)F (stereo partly drawn) [Compound 389, (6S)-N-((S)-3-oxo-1-((S)-2-oxopyrrolidin-3-yl)-4-(trifluoromethoxy)butan-2-yl)-5-(5,5,5-trifluoro-2-hydroxy-4-(trifluoromethyl)-pentanoyl)-5-azaspiro[2.4]heptane-6-carboxamide]",EC50,class symbols,< 0.05 µM
"O=C1NCC[C@H]1C[C@H](NC(=O)[C@@H]1CC2(CC2)CN1C(=O)C(O)CC(F)(F)F)C(=O)COC(F)(F)F (stereo partly drawn) [Compound 390, (6S)-N-((S)-3-oxo-1-((S)-2-oxopyrrolidin-3-yl)-4-(trifluoromethoxy)butan-2-yl)-5-(4,4,4-trifluoro-2-hydroxybutanoyl)-5-azaspiro[2.4]heptane-6-carboxamide]",EC50,class symbols,0.05 to 0.2 µM
"CC1(C)[C@@H]2[C@@H](C(=O)N[C@@H](C[C@@H]3CCNC3=O)C(=O)COC(F)(F)F)N(C(=O)C(O)CC(F)(F)F)C[C@@H]21 (stereo partly drawn) [Compound 391, (1R,2S,5S)-6,6-dimethyl-N-((S)-3-oxo-1-((S)-2-oxopyrrolidin-3-yl)-4-(trifluoromethoxy)butan-2-yl)-3-(4,4,4-trifluoro-2-hydroxybutanoyl)-3-azabicyclo[3.1.0]-hexane-2-carboxamide]",EC50,class symbols,0.05 to 0.2 µM
"O=C1NCC[C@H]1C[C@H](NC(=O)[C@@H]1CC2(CC2)CN1C(=O)[C@H](O)CC1CC1)C(=O)COC(F)(F)F [Compound 392, (S)-5-((R)-3-cyclopropyl-2-hydroxypropanoyl)-N-((S)-3-oxo-1-((S)-2-oxopyrrolidin-3-yl)-4-(trifluoromethoxy)butan-2-yl)-5-azaspiro[2.4]heptane-6-carboxamide]",EC50,class symbols,0.05 to 0.2 µM
"O=C1NCC[C@H]1C[C@H](NC(=O)[C@@H]1[C@H]2CCC[C@H]2CN1C(=O)[C@H](O)CC1CC1)C(=O)COC(F)(F)F [Compound 393, (1S,3aR,6aS)-2-((R)-3-cyclopropyl-2-hydroxypropanoyl)-N-((S)-3-oxo-1-((S)-2-oxopyrrolidin-3-yl)-4-(trifluoromethoxy)butan-2-yl)octahydrocyclo-penta[c]pyrrole-1-carboxamide]",EC50,class symbols,< 0.05 µM
"CC1(C)[C@@H]2[C@@H](C(=O)N[C@@H](C[C@@H]3CCNC3=O)C(=O)COC(F)(F)F)N(C(=O)[C@@H](O)CC3CC3)C[C@@H]21 [Compound 394, (1R,2S,5S)-3-((S)-3-cyclopropyl-2-hydroxypropanoyl)-6,6-dimethyl-N-((S)-3-oxo-1-((S)-2-oxopyrrolidin-3-yl)-4-(trifluoromethoxy)butan-2-yl)-3-azabicyclo[3.1.0] hexane-2-carboxamide]",EC50,class symbols,< 0.05 µM
"O=C1NCC[C@H]1C[C@H](NC(=O)[C@@H]1CC2(CC2)CN1C(=O)C(O)CCC(F)(F)F)C(=O)COC(F)(F)F (stereo partly drawn) [Compound 395, (6S)-N-((S)-3-oxo-1-((S)-2-oxopyrrolidin-3-yl)-4-(trifluoromethoxy)butan-2-yl)-5-(5,5,5-trifluoro-2-hydroxypentanoyl)-5-azaspiro[2.4]heptane-6-carboxamide]",EC50,class symbols,0.05 to 0.2 µM
"CC(C)C[C@H](NC(=O)[C@H](O)CF)C(=O)N[C@@H](C[C@@H]1CCNC1=O)C(=O)COC(F)(F)F [Compound 396, (S)-2-((S)-3-fluoro-2-hydroxypropanamido)-4-methyl-N-((S)-3-oxo-1-((S)-2-oxopyrrolidin-3-yl)-4-(trifluoromethoxy)butan-2-yl)pentanamide]",EC50,class symbols,0.2 to 0.5 µM
"O=C1NCC[C@H]1C[C@H](NC(=O)[C@@H]1CC2(CC2)CN1C(=O)[C@H](O)CF)C(=O)COC(F)(F)F [Compound 397, (S)-5-((S)-3-fluoro-2-hydroxypropanoyl)-N-((S)-3-oxo-1-((S)-2-oxopyrrolidin-3-yl)-4-(trifluoromethoxy)butan-2-yl)-5-azaspiro[2.4]heptane-6-carboxamide]",EC50,class symbols,0.05 to 0.2 µM
"O=C1NCC[C@H]1C[C@H](NC(=O)[C@@H]1CC2(CC2)CN1C(=O)[C@H](O)Cc1ccccc1)C(=O)COC(F)(F)F [Compound 398, (S)-5-((R)-2-hydroxy-3-phenylpropanoyl)-N-((S)-3-oxo-1-((S)-2-oxopyrrolidin-3-yl)-4-(trifluoromethoxy)butan-2-yl)-5-azaspiro[2.4]heptane-6-carboxamide]",EC50,class symbols,0.05 to 0.2 µM
"O=C1NCC[C@H]1C[C@H](NC(=O)[C@@H]1CC2(CC2)CN1C(=O)C(O)c1cc(F)c(F)c(F)c1)C(=O)COC(F)(F)F (stereo partly drawn) [Compound 399, (6S)-5-(2-hydroxy-2-(3,4,5-trifluorophenyl)acetyl)-N-((S)-3-oxo-1-((S)-2-oxopyrrolidin-3-yl)-4-(trifluoromethoxy)butan-2-yl)-5-azaspiro[2.4]heptane-6-carboxamide]",EC50,class symbols,0.05 to 0.2 µM
"O=C1NCC[C@H]1C[C@H](NC(=O)[C@@H]1CC2(CC2)CN1C(=O)C(O)c1ccc(F)c(F)c1)C(=O)COC(F)(F)F (stereo partly drawn) [Compound 400, (6S)-5-(2-(3,4-difluorophenyl)-2-hydroxyacetyl)-N-((S)-3-oxo-1-((S)-2-oxopyrrolidin-3-yl)-4-(trifluoromethoxy)butan-2-yl)-5-azaspiro[2.4]heptane-6-carboxamide]",EC50,class symbols,0.05 to 0.2 µM
"CC1(C)[C@@H]2[C@@H](C(=O)N[C@@H](C[C@@H]3CCNC3=O)C(=O)COC(F)(F)F)N(C(=O)C(O)c3ccc(F)c(F)c3)C[C@@H]21 (stereo partly drawn) [Compound 401, (1R,2S,5S)-3-(2-(3,4-difluorophenyl)-2-hydroxyacetyl)-6,6-dimethyl-N-((S)-3-oxo-1-((S)-2-oxopyrrolidin-3-yl)-4-(trifluoromethoxy)butan-2-yl)-3-azabicyclo[3.1.0]hexane-2-carboxamide]",EC50,class symbols,< 0.05 µM
"O=C1NCC[C@H]1C[C@H](NC(=O)[C@@H]1CC2(CC2)CN1C(=O)C(O)c1ccc(F)cc1F)C(=O)COC(F)(F)F (stereo partly drawn) [Compound 402, (6S)-5-(2-(2,4-difluorophenyl)-2-hydroxyacetyl)-N-((S)-3-oxo-1-((S)-2-oxopyrrolidin-3-yl)-4-(trifluoromethoxy)butan-2-yl)-5-azaspiro[2.4]heptane-6-carboxamide]",EC50,,< 0.05 µM
"O=C1NCC[C@H]1C[C@H](NC(=O)[C@@H]1CC2(CC2)CN1C(=O)[C@H](O)c1ccc(F)cc1)C(=O)COC(F)(F)F [Compound 403, (S)-5-((R)-2-(4-fluorophenyl)-2-hydroxyacetyl)-N-((S)-3-oxo-1-((S)-2-oxopyrrolidin-3-yl)-4-(trifluoromethoxy)butan-2-yl)-5-azaspiro[2.4]heptane-6-carboxamide]",EC50,,0.05 to 0.2 µM
"O=C1NCC[C@H]1C[C@H](NC(=O)[C@@H]1[C@H]2CCC[C@H]2CN1C(=O)[C@H](O)c1ccc(F)cc1)C(=O)COC(F)(F)F [Compound 404, (1S,3aR,6aS)-2-((R)-2-(4-fluorophenyl)-2-hydroxyacetyl)-N-((S)-3-oxo-1-((S)-2-oxopyrrolidin-3-yl)-4-(trifluoromethoxy)butan-2-yl)octahydrocyclo-penta[c]pyrrole-1-carboxamide]",EC50,,< 0.05 µM
"O=C1NCC[C@H]1C[C@H](NC(=O)[C@@H]1CC2(CC2)CN1C(=O)C(O)c1cccc(F)c1)C(=O)COC(F)(F)F (stereo partly drawn) [Compound 405, (6S)-5-(2-(3-fluorophenyl)-2-hydroxyacetyl)-N-((S)-3-oxo-1-((S)-2-oxopyrrolidin-3-yl)-4-(trifluoromethoxy)butan-2-yl)-5-azaspiro[2.4]heptane-6-carboxamide]",EC50,,0.05 to 0.2 µM
"O=C1NCC[C@H]1C[C@H](NC(=O)[C@@H]1CC2(CC2)CN1C(=O)C(O)c1ccccc1C(F)(F)F)C(=O)COC(F)(F)F (stereo partly drawn) [Compound 406, (6S)-5-(2-hydroxy-2-(2-(trifluoromethyl)-phenyl)acetyl)-N-((S)-3-oxo-1-((S)-2-oxopyrrolidin-3-yl)-4-(trifluoromethoxy)butan-2-yl)-5-azaspiro[2.4]heptane-6-carboxamide]",EC50,,0.05 to 0.2 µM
"CC1(C)[C@@H]2[C@@H](C(=O)N[C@@H](C[C@@H]3CCNC3=O)C(=O)COC(F)(F)F)N(C(=O)[C@H](O)c3ccccc3F)C[C@@H]21 [Compound 407, (1R,2S,5S)-3-((R)-2-(2-fluorophenyl)-2-hydroxyacetyl)-6,6-dimethyl-N-((S)-3-oxo-1-((S)-2-oxopyrrolidin-3-yl)-4-(trifluoromethoxy)butan-2-yl)-3-azabicyclo[3.1.0]hexane-2-carboxamide]",EC50,,< 0.05 µM
"CC(C)C[C@H](NC(=O)[C@H](O)c1ccccc1F)C(=O)N[C@@H](C[C@@H]1CCNC1=O)C(=O)COC(F)(F)F [Compound 408, (S)-2-((R)-2-(2-fluorophenyl)-2-hydroxyacetamido)-4-methyl-N-((S)-3-oxo-1-((S)-2-oxopyrrolidin-3-yl)-4-(trifluoromethoxy)butan-2-yl)pentanamide]",EC50,,< 0.05 µM
"O=C1NCC[C@H]1C[C@H](NC(=O)[C@@H]1[C@H]2CCC[C@H]2CN1C(=O)[C@H](O)c1ccccc1F)C(=O)COC(F)(F)F [Compound 409, (1S,3aR,6aS)-2-((R)-2-(2-fluorophenyl)-2-hydroxyacetyl)-N-((S)-3-oxo-1-((S)-2-oxopyrrolidin-3-yl)-4-(trifluoromethoxy)butan-2-yl)octahydrocyclo-penta[c]pyrrole-1-carboxamide]",EC50,,< 0.05 µM
"O=C1NCC[C@H]1C[C@H](NC(=O)[C@@H]1CC2(CC2)CN1C(=O)[C@H](O)c1ccccc1F)C(=O)COC(F)(F)F [Compound 410, (S)-5-((R)-2-(2-fluorophenyl)-2-hydroxyacetyl)-N-((S)-3-oxo-1-((S)-2-oxopyrrolidin-3-yl)-4-(trifluoromethoxy)butan-2-yl)-5-azaspiro[2.4]heptane-6-carboxamide]",EC50,,0.05 to 0.2 µM

# Reference: patent US11708348B2, “Protease inhibitors for treatment of coronavirus infections” (The Scripps Research Institute, priority 2021, dated 2023)
